Test system: HBV
Assay: Inhibition of HBV infection of human liver buds by drugs (intracellular HBV 3.5k RNA and HBV DNA in culture supernatant)
Type: cell-based
Conditions: HBV 5,000 copies per cell, cultured for 10 days, FIG. 8, vs Con
Method: The endodermal cells obtained, vascular endothelial cells (human umbilical vein-derived endothelial cells) (Lonza, Basel, Switzerland) and undifferentiated mesenchymal cells (human bone marrow-derived mesenchymal stem cells) (Lonza, Basel, Switzerland) were mixed at 10:7:1 (400 cells: 280 cells: 40 cells per organ bud) to prepare human liver buds (120-150 μm in size).
The human liver buds prepared in (2) above were cultured in DMSO-containing medium for 7 days and further cultured in HGF-, OSM- and DEX-containing medium for 7 days, followed by infection with HBV. HBV was recovered from culture supernatant of HepG2.2.15 cells which had been prepared by transferring the intact HBV genome (genotype D) into human hepatoma cell line HepG2 by lipofection. The liver buds were infected with approx. 500 copies of HBV per endodermal cell in 4% PEG8000-containing medium and cultured for about 30 days.
(5) Culture supernatants of human liver buds and human iPS-cell derived hepatocytes were recovered at days 10, 20 and 30 post HBV infection, followed by measurement of HBV DNA. (6) Human liver buds and human iPS-cell derived hepatocytes were recovered at days 10, 20 and 30 post HBV infection, followed by measurement of HBV 3.5k RNA. (7) The inside of human liver buds was immunostained with HBc antibody at days 10, 20 and 30 post HBV infection. (8) Human primary hepatocytes (PXB cells; Phoenix Bio) were infected with the culture supernatant of human liver buds at day 20 post HBV infection. (9) Human liver buds and human iPS-cell derived hepatocytes were recovered at day 20 post HBV infection, followed by measurement of covalently closed circular DNA (cccDNA). (10) Human liver buds at day 10 post HBV infection and non-HBV-infected human liver buds in the corresponding period were fixed with paraformaldehyde and glutaraldehyde, and electron micrographs were taken. (11) Human liver buds were infected with HBV (5,000 copies per cell). […] Intracellular HBV 3.5k RNA and HBV DNA in culture supernatant were measured.

C=C1[C@H](CO)[C@@H](O)C[C@@H]1n1cnc2c(=O)[nH]c(N)nc21 [ETV, entecavir, reference compound]
infection of human liver bud with HBV (entecavir): inhibited

interferon γ [IFN-γ]
infection of human liver bud with HBV (interferon γ 1000 U/ml): inhibited

interferon α [IFN-α]
infection of human liver bud with HBV (interferon α 1000 U/ml): inhibited
